{"source": "patent EP1369114A1", "about": "“Use of tryptophan metabolites as pharmaceutical agents” (Terness, Peter, Priv. Doz. Dr., priority 2002, dated 2003)", "tested_on": "kynurenine-suppressed T cells", "assay": "Polyclonal restimulation with Concanavalin A of T cells suppressed during anti-CD3 stimulation", "format": "cell-based, human", "conditions": "anti-CD3 plus kynurenine 2 days, washed, Con-A in the absence of kynurenine", "method": "• (a) Allogeneic T-cell response. DCs were infected with recombinant IDO-adeno-GFP (DC-IDO-GFP), IDO-adeno (DC-IDO) or with control adenoviruses (DC-adeno) at a MOI (multiplicity of infection) up to 500 for 2 days. Lymphocytes (PBMCs) were separated from peripheral blood of healthy donors by density gradient centrifugation and typed for HLA antigens. Only HLA-DR-different responder lymphocytes were used for DC-induced stimulation. […] After 5 days, ^3[H]-thymidin was added for 12hrs and the number of counts (counts per minute = cpm) determined in a (3-counter (Inotech Biosystems, Lansing, MI). In order to verify whether IDO expression or adenovirus infection harm the DCs, 10^5 cells were infected with IDO-adeno-GFP, IDO-adenovirus, or adenovirus only at a stepwise decreasing MOI (500, 250, 125, ........ 3.9) and cell viability was measured in FACS following double staining with 7-AAD and anti-CD83 antibody-PE. The percentage of dead cells never exceeded 30% for any MOI following IDO-adeno-GFP- or IDO-adeno-infection and 40% following adenovirus(control)-infection. […] After 2 days, cell proliferation was assessed by measuring ^3[H]-thymidin incorporation (cpm) as described. • (c) Tryptophan metabolite titration curves. […] After 2 days, ^3[H] thymidin was added and the number of counts recorded. […] After another 2 days, ^3[H] thymidin was added and cpm determined. […]"}
{"smiles": "Nc1ccccc1C(=O)CC(N)C(=O)O", "note": "(stereo not shown) [kynurenine]", "values": [{"measurement": "restimulation with Con-A after suppression", "result": "cannot be restimulated"}]}
